According to ChEMBL document CHEMBL1201862, “PubChem BioAssay data set” (2004):
Blank lines part the entries; values can stand above or below the molecule they belong to. The source made the active and inactive calls.

How the values were obtained:
[1] = target: Voltage-gated inwardly rectifying potassium channel KCNH2 (Homo sapiens, UniProt Q12809); conditions: Potency;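 note: confirmatory quantitative high-throughput screen measuring inhibition of hERG channel activity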
[2] = target: T1, Tyrosine-protein phosphatase non-receptor type 7 (Homo sapiens, UniProt P35236); format: functional
T1 sequence (P35236 whole entry): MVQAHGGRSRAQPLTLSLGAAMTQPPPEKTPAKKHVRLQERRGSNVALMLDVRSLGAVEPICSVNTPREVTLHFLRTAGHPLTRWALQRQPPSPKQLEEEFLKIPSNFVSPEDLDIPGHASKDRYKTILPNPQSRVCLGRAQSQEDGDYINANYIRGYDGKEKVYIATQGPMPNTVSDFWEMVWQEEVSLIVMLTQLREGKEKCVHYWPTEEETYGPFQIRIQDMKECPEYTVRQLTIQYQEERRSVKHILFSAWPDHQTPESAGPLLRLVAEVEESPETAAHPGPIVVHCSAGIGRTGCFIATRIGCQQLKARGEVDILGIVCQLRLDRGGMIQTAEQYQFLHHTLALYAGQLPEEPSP

[3] = target: Glyceraldehyde-3-phosphate dehydrogenase (Homo sapiens, UniProt P04406)
Sequence of Glyceraldehyde-3-phosphate dehydrogenase (P04406 whole entry): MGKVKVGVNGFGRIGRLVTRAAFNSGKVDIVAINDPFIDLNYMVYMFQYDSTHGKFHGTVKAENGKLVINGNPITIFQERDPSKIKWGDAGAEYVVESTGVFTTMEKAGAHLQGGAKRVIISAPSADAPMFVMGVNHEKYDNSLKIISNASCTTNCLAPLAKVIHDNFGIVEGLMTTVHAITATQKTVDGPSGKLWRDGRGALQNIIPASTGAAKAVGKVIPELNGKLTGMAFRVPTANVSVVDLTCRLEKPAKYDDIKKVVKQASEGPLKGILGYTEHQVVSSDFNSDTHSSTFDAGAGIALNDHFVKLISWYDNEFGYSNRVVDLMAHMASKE

[4] = target: T2, Dual specificity protein phosphatase 6 (Rattus norvegicus, UniProt Q64346)
T2 sequence (Q64346 whole entry): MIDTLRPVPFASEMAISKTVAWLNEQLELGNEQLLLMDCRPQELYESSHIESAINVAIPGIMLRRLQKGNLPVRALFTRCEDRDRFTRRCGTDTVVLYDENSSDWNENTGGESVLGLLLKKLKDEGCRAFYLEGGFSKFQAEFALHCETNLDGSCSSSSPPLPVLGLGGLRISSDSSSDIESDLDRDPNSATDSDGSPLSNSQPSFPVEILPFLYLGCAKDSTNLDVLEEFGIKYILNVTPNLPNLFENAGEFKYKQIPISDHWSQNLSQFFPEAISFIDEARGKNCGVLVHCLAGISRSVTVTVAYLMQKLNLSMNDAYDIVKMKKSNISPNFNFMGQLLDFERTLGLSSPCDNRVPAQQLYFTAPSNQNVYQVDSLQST

[5] = target: T2, Dual specificity protein phosphatase 6; format: functional
[6] = decrease of insulin promoter-GFP reporter – imaging, high-content screening, mouse beta cells (AID 1628); format: functional; conditions: MIN6
[7] = MIN6 cell viability loss – mouse insulinoma, cytotoxicity control, dose response (AID 2122); format: functional;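 note: confirmatory high-throughput counterscreen run to flag cytotoxic compounds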
[8] = viability loss in HeLa cells – cytotoxicity control for MgcRacGAP inhibitor project, dose response (AID 624300); format: functional
[9] = target: T3, Rac GTPase-activating protein 1 (Homo sapiens, UniProt Q9H0H5); assay: blockers of MgcRacGAP-driven Rac1 GTP hydrolysis – biochemical, ADP Hunter fluorescence, primary and confirmatory, confirmation (AID 624330); format: functional
T3 sequence (Q9H0H5 whole entry): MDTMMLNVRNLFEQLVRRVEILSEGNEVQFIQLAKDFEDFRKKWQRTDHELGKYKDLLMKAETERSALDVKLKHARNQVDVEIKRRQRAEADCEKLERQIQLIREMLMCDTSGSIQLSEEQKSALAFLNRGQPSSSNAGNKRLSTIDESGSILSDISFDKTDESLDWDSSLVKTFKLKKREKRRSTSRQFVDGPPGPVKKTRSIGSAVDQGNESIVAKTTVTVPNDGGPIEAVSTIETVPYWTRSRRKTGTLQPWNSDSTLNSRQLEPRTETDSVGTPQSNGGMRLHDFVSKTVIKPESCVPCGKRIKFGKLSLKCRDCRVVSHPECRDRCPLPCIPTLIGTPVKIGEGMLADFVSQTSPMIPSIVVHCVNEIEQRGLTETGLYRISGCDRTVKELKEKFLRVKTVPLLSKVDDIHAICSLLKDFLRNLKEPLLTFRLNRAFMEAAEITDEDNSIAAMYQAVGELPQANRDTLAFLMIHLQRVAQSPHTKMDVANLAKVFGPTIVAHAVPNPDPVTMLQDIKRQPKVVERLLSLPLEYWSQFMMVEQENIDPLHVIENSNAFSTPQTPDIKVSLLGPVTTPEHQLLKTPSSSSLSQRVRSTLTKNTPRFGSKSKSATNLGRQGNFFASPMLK

[10] = tested on: Jurkat; assay: blockers of NF-kB activation in T cells – Jurkat, luciferase reporter, luminescence, B- and T-cell, dose response (AID 489004); format: functional, cell-based; conditions: Homo sapiens;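 note: NF-kB luciferase reporter Jurkat cells stimulated with PMA plus ionomycin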
[11] = HEK-293T viability loss, compound-treated – cell-based, uHTS hits, cytotoxicity control for B/T-cell NF-kB inhibitor project, dose response (AID 489019); format: functional;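 note: IC50 reflects cytotoxicity as loss of cell viability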
[12] = target: NS3 (Hepatitis C virus, UniProt A3EZJ3); assay: PubChem AID 2173; set-up: species or system Hepacivirus hominis
Sequence of NS3 (A3EZJ3 whole entry): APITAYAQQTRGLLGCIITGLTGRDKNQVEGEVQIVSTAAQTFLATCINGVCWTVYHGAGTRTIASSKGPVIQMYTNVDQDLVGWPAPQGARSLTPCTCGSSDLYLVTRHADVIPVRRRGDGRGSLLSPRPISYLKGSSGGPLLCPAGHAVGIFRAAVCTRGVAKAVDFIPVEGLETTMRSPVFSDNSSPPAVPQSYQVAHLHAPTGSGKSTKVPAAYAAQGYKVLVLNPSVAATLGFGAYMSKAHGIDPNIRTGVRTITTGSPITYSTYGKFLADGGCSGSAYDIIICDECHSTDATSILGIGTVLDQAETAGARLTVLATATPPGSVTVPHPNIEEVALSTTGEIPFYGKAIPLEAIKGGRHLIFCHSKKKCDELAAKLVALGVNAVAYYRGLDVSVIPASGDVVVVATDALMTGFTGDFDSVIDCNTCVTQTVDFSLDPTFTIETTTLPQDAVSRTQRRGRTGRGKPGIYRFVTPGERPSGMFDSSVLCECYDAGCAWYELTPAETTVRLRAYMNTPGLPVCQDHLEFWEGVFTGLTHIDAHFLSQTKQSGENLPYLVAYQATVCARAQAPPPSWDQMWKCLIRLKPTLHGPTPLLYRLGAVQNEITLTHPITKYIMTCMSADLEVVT

[13] = Late-stage probe development counterscreen for inhibitors of the Hepatitis C Virus non-structural protein 3 helicase (NS3): luminescence-based cell-based dose response assay to determine whether compounds that inhibit replication of HCV RNA replicon are cytotoxic. [Related pubchem assays (depositor defined):AID1800, AID1830, AID1845, AID1943, AID1945, AID2172, AID2173, AID2474, AID2476]; format: functional
[14] = tested on: Candida albicans; assay: fluconazole-resistant Candida strain growth inhibitors – CaCi-8 strain, dry powder, set 4, dose response (AID 488950); format: functional, organism-based
[15] = tested on: Candida albicans; assay: C. albicans growth inhibition with fluconazole – CaCi-2 strain, Alamar Blue, dry powder, set 4, dose response (AID 488943); format: functional, organism-based
[16] = tested on: Candida albicans; assay: antifungal activity against resistant Candida strain – CaCi-8, fluconazole, Alamar Blue, dry powder, dose response (AID 488807); format: functional, organism-based
[17] = tested on: NIH3T3; assay: mammalian cell viability counter-check – Alamar Blue, fluconazole, dry powder, cytotoxicity control for antifungal drug resistance project, dose response (AID 488809); format: functional, cell-based; conditions: Mus musculus
[18] = target: T4, CAAX prenyl protease 2 (Saccharomyces cerevisiae S288c, UniProt Q03530); format: biochemical
T4 sequence (Q03530 whole entry): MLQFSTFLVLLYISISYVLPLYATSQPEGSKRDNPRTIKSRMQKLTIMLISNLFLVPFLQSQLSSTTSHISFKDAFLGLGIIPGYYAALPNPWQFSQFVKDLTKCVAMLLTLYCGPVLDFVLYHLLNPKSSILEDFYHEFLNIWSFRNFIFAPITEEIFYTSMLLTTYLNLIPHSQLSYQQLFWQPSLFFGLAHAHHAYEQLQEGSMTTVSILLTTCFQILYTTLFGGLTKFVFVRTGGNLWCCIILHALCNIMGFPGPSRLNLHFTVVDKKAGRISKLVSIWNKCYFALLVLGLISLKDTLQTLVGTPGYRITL

[19] = target: T4, CAAX prenyl protease 2; assay: inhibition of Rce1p peptide cleavage – biochemical, plate reader, dry powder retest, dose response (AID 588851)
[20] = target: CAAX prenyl protease 2 (Homo sapiens, UniProt Q9Y256); assay: inhibition of Ras-converting CAAX protease Rce1 – biochemical, yeast membranes, quenched-peptide fluorescence, cherry-pick, dose response (AID 588849)
Sequence of CAAX prenyl protease 2 (Homo sapiens, UniProt Q9Y256) (Q9Y256 whole entry): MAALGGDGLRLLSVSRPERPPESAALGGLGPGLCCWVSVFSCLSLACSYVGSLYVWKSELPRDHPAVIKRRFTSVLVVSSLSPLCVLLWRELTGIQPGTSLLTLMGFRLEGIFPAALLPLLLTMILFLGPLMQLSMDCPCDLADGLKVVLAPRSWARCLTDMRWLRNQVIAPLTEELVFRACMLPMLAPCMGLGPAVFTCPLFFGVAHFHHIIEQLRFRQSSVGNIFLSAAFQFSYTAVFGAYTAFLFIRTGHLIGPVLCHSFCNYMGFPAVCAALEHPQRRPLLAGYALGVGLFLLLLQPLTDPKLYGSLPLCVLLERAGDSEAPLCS

[21] = target: Transitional endoplasmic reticulum ATPase (Homo sapiens, UniProt P55072, C522A); assay: C522A mutant p97 ATPase inhibitors, dose response, counter-screen for p97 inhibitor project, biochemical, luminescence (AID 1544)
Sequence of Transitional endoplasmic reticulum ATPase (Homo sapiens, UniProt P55072, C522A) (P55072 2-806 C522A limits assumed): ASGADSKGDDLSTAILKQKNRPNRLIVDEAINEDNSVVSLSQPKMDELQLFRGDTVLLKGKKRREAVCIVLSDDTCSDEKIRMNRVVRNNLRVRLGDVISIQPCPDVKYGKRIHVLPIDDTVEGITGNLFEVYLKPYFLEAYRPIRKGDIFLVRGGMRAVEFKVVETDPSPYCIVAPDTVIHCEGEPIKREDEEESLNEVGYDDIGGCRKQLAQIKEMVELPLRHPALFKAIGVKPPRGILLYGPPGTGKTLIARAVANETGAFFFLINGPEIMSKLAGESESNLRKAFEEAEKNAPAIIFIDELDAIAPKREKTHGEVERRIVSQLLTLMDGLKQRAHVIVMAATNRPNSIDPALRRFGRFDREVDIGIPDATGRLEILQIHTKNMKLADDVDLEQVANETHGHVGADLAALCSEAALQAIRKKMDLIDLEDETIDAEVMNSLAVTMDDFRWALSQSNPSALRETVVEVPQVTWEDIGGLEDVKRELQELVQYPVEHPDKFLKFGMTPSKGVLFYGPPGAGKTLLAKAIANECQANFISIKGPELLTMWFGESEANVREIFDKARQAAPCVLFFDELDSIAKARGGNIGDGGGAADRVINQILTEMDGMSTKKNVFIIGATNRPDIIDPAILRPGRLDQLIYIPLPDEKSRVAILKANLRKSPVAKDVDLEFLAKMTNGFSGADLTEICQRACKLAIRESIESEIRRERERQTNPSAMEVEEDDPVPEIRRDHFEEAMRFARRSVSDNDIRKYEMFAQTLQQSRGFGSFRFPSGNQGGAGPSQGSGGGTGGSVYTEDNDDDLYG

[22] = target: Transitional endoplasmic reticulum ATPase (Homo sapiens, UniProt P55072); assay: p97 ATPase inhibitors, dose response, biochemical (AID 1534)
Sequence of Transitional endoplasmic reticulum ATPase (Homo sapiens, UniProt P55072) (P55072 whole entry): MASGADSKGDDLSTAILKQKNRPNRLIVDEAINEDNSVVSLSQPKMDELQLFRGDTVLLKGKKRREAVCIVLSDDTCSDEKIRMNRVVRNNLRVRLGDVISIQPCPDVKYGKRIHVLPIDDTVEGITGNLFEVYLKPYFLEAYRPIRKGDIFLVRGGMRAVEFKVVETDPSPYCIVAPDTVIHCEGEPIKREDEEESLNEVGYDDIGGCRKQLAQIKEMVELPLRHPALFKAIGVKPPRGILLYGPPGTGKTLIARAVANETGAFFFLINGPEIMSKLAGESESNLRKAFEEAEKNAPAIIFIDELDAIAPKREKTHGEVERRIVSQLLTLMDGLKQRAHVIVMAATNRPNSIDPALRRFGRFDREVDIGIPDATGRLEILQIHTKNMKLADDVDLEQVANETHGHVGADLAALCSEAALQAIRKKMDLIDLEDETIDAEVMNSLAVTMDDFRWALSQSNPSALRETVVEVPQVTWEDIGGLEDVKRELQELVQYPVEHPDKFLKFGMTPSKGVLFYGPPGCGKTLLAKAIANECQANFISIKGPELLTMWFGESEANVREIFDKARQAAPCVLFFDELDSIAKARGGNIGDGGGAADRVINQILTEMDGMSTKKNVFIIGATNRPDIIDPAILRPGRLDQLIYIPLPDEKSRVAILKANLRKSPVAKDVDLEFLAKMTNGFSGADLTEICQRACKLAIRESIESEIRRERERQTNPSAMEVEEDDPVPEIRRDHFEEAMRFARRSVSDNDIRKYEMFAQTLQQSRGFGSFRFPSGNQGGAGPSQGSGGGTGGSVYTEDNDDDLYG

[23] = target: Glucose-6-phosphate 1-dehydrogenase (Homo sapiens, UniProt P11413); assay: inhibition of Homo sapiens G6PD, dose series – biochemical, fluorescence, selectivity assay for P. falciparum G6PD inhibitor project, dose response (AID 504792); format: functional
Sequence of Glucose-6-phosphate 1-dehydrogenase (P11413 whole entry): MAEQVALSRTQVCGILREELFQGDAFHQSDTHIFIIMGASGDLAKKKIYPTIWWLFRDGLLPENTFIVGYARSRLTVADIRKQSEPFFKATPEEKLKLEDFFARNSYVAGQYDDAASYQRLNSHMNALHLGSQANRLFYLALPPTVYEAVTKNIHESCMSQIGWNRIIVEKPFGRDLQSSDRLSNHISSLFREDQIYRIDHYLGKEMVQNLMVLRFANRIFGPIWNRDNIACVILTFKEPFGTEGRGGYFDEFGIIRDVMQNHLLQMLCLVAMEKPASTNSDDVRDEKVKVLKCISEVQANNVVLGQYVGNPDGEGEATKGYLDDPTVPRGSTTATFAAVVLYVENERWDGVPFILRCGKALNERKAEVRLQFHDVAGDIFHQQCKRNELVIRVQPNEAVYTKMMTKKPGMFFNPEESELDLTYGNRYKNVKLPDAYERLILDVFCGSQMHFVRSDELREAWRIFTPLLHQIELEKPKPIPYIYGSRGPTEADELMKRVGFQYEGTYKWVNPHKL

[24] = target: Beta-arrestin-1 (Homo sapiens, UniProt P49407); assay: beta-arrestin/AP2 interaction blockers, potency – biochemical, cherry pick 1, beta2-adaptin appendage, flow cytometry, dose response (AID 588783); format: functional
Sequence of Beta-arrestin-1 (P49407 whole entry): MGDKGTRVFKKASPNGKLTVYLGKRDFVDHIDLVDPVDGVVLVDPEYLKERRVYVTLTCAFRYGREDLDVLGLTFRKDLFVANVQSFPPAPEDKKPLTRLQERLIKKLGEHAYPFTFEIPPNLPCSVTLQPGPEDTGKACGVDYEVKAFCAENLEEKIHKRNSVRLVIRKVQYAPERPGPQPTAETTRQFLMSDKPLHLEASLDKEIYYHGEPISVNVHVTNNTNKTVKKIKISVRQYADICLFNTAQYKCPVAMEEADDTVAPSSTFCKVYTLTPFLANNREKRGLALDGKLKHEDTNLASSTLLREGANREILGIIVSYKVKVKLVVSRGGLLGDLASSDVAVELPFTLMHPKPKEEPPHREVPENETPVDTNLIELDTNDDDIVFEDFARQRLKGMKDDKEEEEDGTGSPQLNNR

[25] = target: Genome polyprotein (dengue virus type 2, UniProt P29990); assay: flavivirus cap methylation enzyme inhibition – biochemical, confirmation dose response, primary screen (AID 588689); format: functional
[26] = target: T5, Polyadenylate-binding protein 1 (Homo sapiens, UniProt P11940); assay: MLLE binding blockers, Cy5 peptide tracer – biochemical, fluorescence polarization, Cy5-PAM2 peptide, secondary, miRNA deadenylation inhibitor project, dose response (AID 602260); format: functional; conditions: read-out: IC50_Mean
T5 sequence (P11940 whole entry, the tested form may be a part): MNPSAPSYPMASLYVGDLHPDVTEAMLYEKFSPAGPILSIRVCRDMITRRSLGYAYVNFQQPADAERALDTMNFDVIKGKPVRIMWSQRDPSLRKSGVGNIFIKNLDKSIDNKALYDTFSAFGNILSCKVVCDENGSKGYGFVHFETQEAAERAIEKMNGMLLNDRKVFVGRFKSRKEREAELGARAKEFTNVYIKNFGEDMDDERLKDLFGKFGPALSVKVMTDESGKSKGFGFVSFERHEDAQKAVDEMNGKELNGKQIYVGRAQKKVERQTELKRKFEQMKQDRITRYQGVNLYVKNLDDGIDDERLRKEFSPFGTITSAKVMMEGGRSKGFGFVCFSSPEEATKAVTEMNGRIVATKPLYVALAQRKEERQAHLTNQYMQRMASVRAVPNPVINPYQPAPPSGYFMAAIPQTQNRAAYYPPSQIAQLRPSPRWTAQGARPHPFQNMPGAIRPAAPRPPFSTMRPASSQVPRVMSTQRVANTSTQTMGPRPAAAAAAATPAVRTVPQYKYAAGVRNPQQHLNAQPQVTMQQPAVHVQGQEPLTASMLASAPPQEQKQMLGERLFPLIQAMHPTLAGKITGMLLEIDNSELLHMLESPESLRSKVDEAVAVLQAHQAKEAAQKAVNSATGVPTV

[27] = target: T5, Polyadenylate-binding protein 1; assay: MLLE domain peptide-binding blockers, IC50 – biochemical, fluorescence polarization, FITC-PAM2 peptide, dose response (AID 602259); format: functional; conditions: read-out: IC50_Mean
[28] = target: T6, Caspase-6 (Homo sapiens, UniProt P55212); assay: inhibition of CASP6 peptide cleavage – biochemical, VEID-R110 fluorescence, cherry-pick, dose response (AID 720632)
T6 sequence (P55212 whole entry): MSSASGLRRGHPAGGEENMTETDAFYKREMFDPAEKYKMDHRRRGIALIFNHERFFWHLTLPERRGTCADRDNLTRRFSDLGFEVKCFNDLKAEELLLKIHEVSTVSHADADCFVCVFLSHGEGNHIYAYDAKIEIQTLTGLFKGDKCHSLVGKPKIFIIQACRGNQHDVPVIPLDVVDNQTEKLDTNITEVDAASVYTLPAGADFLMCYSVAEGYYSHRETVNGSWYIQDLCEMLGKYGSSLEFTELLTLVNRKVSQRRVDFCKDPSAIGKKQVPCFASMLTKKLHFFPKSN

[29] = tested on: HEK293; assay: cells; format: functional, cell-based; conditions: Homo sapiens
[30] = target: Nuclear receptor subfamily 0 group B member 1 (Homo sapiens, UniProt P51843); assay: Luminescence-based cell-based high throughput dose response assay for inhibitors of the orphan nuclear receptor subfamily 0, group B, member 1 (DAX1; NR0B1). [Related pubchem assays (depositor defined):AID504766, AID504790]; format: functional
Sequence of Nuclear receptor subfamily 0 group B member 1 (P51843 whole entry): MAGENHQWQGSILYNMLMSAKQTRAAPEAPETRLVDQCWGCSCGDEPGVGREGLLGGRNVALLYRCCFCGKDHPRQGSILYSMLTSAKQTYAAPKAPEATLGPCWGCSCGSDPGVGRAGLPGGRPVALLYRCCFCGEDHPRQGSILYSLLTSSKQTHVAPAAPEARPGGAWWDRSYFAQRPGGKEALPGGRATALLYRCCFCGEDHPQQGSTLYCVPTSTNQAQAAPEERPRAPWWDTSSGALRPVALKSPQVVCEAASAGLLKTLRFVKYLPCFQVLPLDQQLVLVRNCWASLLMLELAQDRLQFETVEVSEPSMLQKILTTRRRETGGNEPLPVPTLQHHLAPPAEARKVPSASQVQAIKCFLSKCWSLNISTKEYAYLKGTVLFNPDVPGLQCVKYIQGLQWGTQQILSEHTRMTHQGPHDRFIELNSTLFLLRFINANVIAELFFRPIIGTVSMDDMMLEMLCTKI

Compound: NCCNC(=O)c1ncsc1-c1cccc(F)c1
AC50 [1]: 35.5 µM (inconclusive)

IC50 [2]: > 100 µM (not active) | IC50 [3]: > 100 µM (not active) | IC50 [4]: > 100 µM (inactive) | IC50 [5]: > 100 µM (inactive)
Compound: CCOC(=O)C1Nc2c(OC)cccc2C2OCCCC12 (stereo not given)

Compound: COc1ccc(-c2nc(-c3ccc(O)cc3O)cs2)cc1OC
IC50 [6]: 4.5 µM (active) | IC50 [7]: 14.1 µM (inactive) | CC50 [8]: 74.7 µM (active) | IC50 [9]: 55.1 µM (active)

Compound: C[C@H](NC(=O)c1nc[nH]c1C(=O)N[C@@H](C)C(=O)OCc1ccccc1)C(=O)OCc1ccccc1
IC50 [10]: 73.6 µM (inactive) | IC50 [11]: > 80 µM (inactive)

IC50 [12]: 2.68 µM (active)
Compound: COc1cc(C2C(C(=O)c3ccc(C)o3)=C(O)C(=O)N2c2cc(C)on2)ccc1OCc1ccccc1 (stereo not given)
CC50 [13]: > 100 µM (inactive)

Compound: O=C(c1cccs1)N1CCN(c2ccnc3cc(Cl)ccc23)CC1
AC50 [14]: 2.96 µM (active) | AC50 [15]: 1.71 µM (active) | AC50 [16]: 5.31 µM (active) | AC50 [17]: 17.9 µM (active)

AC50 [18]: 1.53 µM (active) | AC50 [19]: 37.1 µM (active) | AC50 [20]: 15.3 µM (active)
Compound: CCOc1cccc(-c2c(C(=O)N/N=C/c3cccs3)nnn2-c2nonc2N)c1

IC50 [21]: > 50 µM (not active) | IC50 [22]: > 50 µM (not active) | IC50 [23]: > 80 µM (inactive) | IC50 [24]: 11 µM (active) | IC50 [25]: 4.59 µM (active) | IC50 [26]: > 66 µM (inactive) | IC50 [27]: > 66 µM (inactive) | AC50 [28]: 0.351 µM (active)
Compound: NS(=O)(=O)c1ccc(N/N=C/c2ccc(O)c(O)c2O)c([N+](=O)[O-])c1

Compound: COc1cc(C(=O)O)cc(OC)c1OC [3,4,5-TRIMETHOXYBENZOIC ACID]
IC50 [29]: > 67.5 µM (inactive) | IC50 [30]: > 67.5 µM (inactive)
